Results as given in PubChem BioAssay AID1996.
≈ marks a conversion by molar mass, not a printed value.

settings: buffer; pH 7.4; 200.0 µM

Row | Structure (SMILES) | solubility kinetic [µg/mL]
1 | O=c1cc(-c2ccccc2)nc(Sc2ccc([N+](=O)[O-])cc2[N+](=O)[O-])[nH]1 | 3.3 (≈ 8.91 µM)
2 | Nc1cc(N)nc(SCC(=O)Nc2ccccc2N2CCOCC2)n1 | 49.6 (≈ 138 µM)
3 | Fc1cccc(/C=N/Nc2nccnc2Cl)c1 | > 37.6
4 | O=C(COC(=O)CNC(=O)c1ccccc1)NCCCc1ccccc1 | 52.3 (≈ 148 µM)
5 | COc1ccc(S(=O)(=O)Nc2ccc3c(c2)n(C)c(=O)n3C)cc1C | > 54.2
6 | Cc1cc([N+](=O)[O-])nn1CC(=O)NC(C)c1ccccc1 (stereo not drawn) | > 43.2
7 | Cc1ccccc1Nc1ncnc(N)n1 | > 30.2
8 | CCCCN1C(=O)C(=O)N(CC(=O)NC2CCCc3ccccc32)C1=O (stereo not drawn) | 50.9 (≈ 142 µM)
9 | Cc1cccc(NC(=O)c2ccc3[nH]c(=O)c(=O)[nH]c3c2)n1 | 17.7 (≈ 59.7 µM)
10 | COc1ccc(-n2ccc(=O)c(C(=O)O)n2)c(OC)c1 | > 41.4
11 | COc1ccccc1CC(=O)N1CCN(c2cccc(Cl)c2)CC1 | 22 (≈ 63.8 µM)
12 | CC1=CC(=C(C#N)C#N)c2ccccc2N1C | 2.7 (≈ 12.2 µM)
13 | O=C(NC1CCS(=O)(=O)C1)c1ccc(Br)o1 (stereo not drawn) | 32.2 (≈ 104 µM)
14 | C=CCOCCN(C)C1=NS(=O)(=O)c2ccccc21.Cl | > 47.5
15 | COc1ccc(CCNC(=O)/C=C/c2ccco2)cc1OC | > 45.2
16 | O=C1OCCN/C1=C\C(=O)c1ccccc1 | > 32.6
17 | Cc1ccc(NC(=O)CCN2CCC(C(N)=O)CC2)cc1 | > 43.4
18 | Cc1ccc(S(=O)(=O)NCC(=O)NC2CC2)cc1 | > 40.2
19 | CCC1Oc2ccccc2N(CC(=O)NCC2CCCO2)C1=O (stereo not drawn) | 44.5 (≈ 140 µM)
20 | COc1ccc(C(=O)COC(=O)c2ccc(Cl)nc2)cc1OC | 10.3 (≈ 30.7 µM)
21 | c1ccc(Oc2cccc(Oc3ccccc3)n2)cc1 | < 0.6
22 | COc1ccc(Cc2c(O)nc(SCC(C)C)[nH]c2=O)cc1 | 47.2 (≈ 147 µM)
23 | COc1cccc2[nH]c3c(N4CCc5ccccc5C4)ncnc3c12 | 0.9 (≈ 2.72 µM)
24 | Cc1cscc1NC(=O)/C=C/C(=O)O | 31.5 (≈ 149 µM)
25 | CCOc1ccc(NC(=S)N(CCc2ccncc2)C(C)C)cc1 | 48.8 (≈ 142 µM)

Row | Structure (SMILES) | solubility kinetic [µg/mL]
26 | CC(C)Oc1ccc(C(=O)Nc2cccc(S(=O)(=O)N3CCCC3)c2)cc1 | 8.5 (≈ 21.9 µM)
27 | Cc1ccc(NC(=O)CNC(=O)C2CCCCC2)nc1 | > 41.3
28 | COc1ccc2[nH]c(C)c(-c3csc(N)n3)c2c1 | 31.3 (≈ 121 µM)
29 | OC(CN1CCN(Cc2ccccc2)CC1)c1ccc(Br)cc1 (stereo not drawn) | 8.1 (≈ 21.6 µM)
30 | CCOP(=O)(OCC)/C(C#N)=C(\O)c1ccc(OC)cc1 | > 46.7
31 | CCc1ccc(NC(=O)C2C3CCC(O3)C2C(=O)O)cc1 (stereo not drawn) | 39.3 (≈ 136 µM)
32 | CC(=O)N1c2ccccc2C(C)=CC1(C)C | 8.1 (≈ 37.6 µM)
33 | Cc1oc(-c2ccccc2)cc1C(=O)NC1CCN(Cc2ccccc2)CC1 | < 0.4
34 | Cc1cc(C)c(NC(=S)NCCO)c(C)c1 | > 35.8
35 | CC(NC(=O)c1ccc([N+](=O)[O-])cc1Cl)C1CC2CCC1C2 (stereo not drawn) | 28 (≈ 86.7 µM)
36 | CC(C)Cc1cc(C(=O)Nc2ccc(Br)cc2)no1 | < 0.3
37 | Cc1ccc(C)c(N2CC(C(=O)O)CC2=O)c1 (stereo not drawn) | > 35
38 | Cc1cc(OCC(=O)N(C)Cc2ccccc2)ccc1Br | 22.7 (≈ 65.2 µM)
39 | O=S(=O)(NC(=S)NC1CCCCC1)c1ccccc1 | 44 (≈ 147 µM)
40 | O=C(Nc1cccc(S(=O)(=O)N2CCCCC2)c1)c1cncc(Br)c1 | 31.6 (≈ 74.5 µM)
41 | CCOc1ccccc1CN1CCN(Cc2ccon2)CC1CCO (stereo not drawn) | 48.9 (≈ 142 µM)
42 | O=C1CS/C(=N/N=C/c2ccncc2)N1 | > 33
43 | CCOC(=O)N1CCN(CCc2ccccc2)CC1 | 30.6 (≈ 117 µM)
44 | CCCc1cc(=O)oc2c(CN3CCN(C)CC3)c(O)ccc12 | 45.2 (≈ 143 µM)
45 | CCN(CC)C(=O)N1c2ccccc2Sc2ccccc21 | 2.8 (≈ 9.38 µM)
46 | CC(OC(=O)c1cccc(Cl)c1)C(=O)NC1CCCCC1C (stereo not drawn) | 8.7 (≈ 26.9 µM)
47 | O=[N+]([O-])c1cc(CS(=O)(=O)Oc2ccc(Cl)cc2)c(O)c([N+](=O)[O-])c1 | > 58.3
48 | COc1ccc(C(CC(=O)O)N2C(=O)CCC2=O)cc1 (stereo not drawn) | > 41.6
49 | CCC(=O)c1ccc(OCC(=O)NC2CCN(Cc3ccccc3)CC2)cc1 | > 57.1
50 | CCCC1Cc2c(sc(N)c2C#N)CO1 (stereo not drawn) | > 33.3

Row | Structure (SMILES) | solubility kinetic [µg/mL]
51 | O=C(Nc1ccccc1O)c1ccc(NC(=O)C2CC2)cc1 | 1.9 (≈ 6.41 µM)
52 | Cc1[nH]c(=O)[nH]c(=S)c1C(=O)Nc1ccc(Cl)c(Cl)c1 | 36.9 (≈ 112 µM)
53 | S=C(NCc1ccco1)N1CCN(c2ccccn2)CC1 | 42.5 (≈ 141 µM)
54 | ClCC1NCC(c2ccccc2Cl)c2c1[nH]c1ccccc21 (stereo not drawn) | 19.3 (≈ 58.3 µM)
55 | COCCn1c(C)cc(C(=O)COC(=O)c2cccnc2SC)c1C | 5.2 (≈ 14.3 µM)
56 | O=C(Nc1cccc2c1CCCC2)c1ccccc1Br | < 0.7
57 | CN(Cc1ccccc1)C(=O)c1ccc2c(c1)S(=O)(=O)N=C1CCCCCN12 | > 59.6
58 | COc1ccccc1N1CCN(C(=O)c2cc(C)on2)CC1 | > 45.2
59 | COc1ccc2c(=O)c(C(=O)NCCc3ccccc3)c[nH]c2c1 | 5.2 (≈ 16.1 µM)
60 | Cc1cc(=O)oc2cc(NC(=O)c3cc(F)ccc3F)ccc12 | 2.1 (≈ 6.66 µM)
61 | O=C(OCC(=O)c1cccs1)c1ccc([N+](=O)[O-])o1 | 16.4 (≈ 58.3 µM)
62 | COc1ccc(C2Nc3ccccc3NC3=C2C(=O)CC(C)(C)C3)cc1O (stereo not drawn) | 34.7 (≈ 95.2 µM)
63 | CC1CCN(CCC(=O)Nc2ccccc2)CC1 | 29.5 (≈ 120 µM)
64 | O=C(COC(=O)/C=C/c1ccc(F)cc1)NC1CCCCCC1 | 3.7 (≈ 11.6 µM)
65 | CC1CCCC(C)N1C(=O)COC(=O)CCC(=O)c1ccc(F)cc1 (stereo not drawn) | > 52.4
66 | CCOC(=O)c1nc(-c2ccccc2)sc1C(C)=O | 35.9 (≈ 130 µM)
67 | O=C(CCC(=O)Nc1ccccc1)N/N=C/c1cccnc1 | > 44.4
68 | CCN1CCN(c2cc(=O)n3ccccc3n2)CC1 | 32 (≈ 124 µM)
69 | COc1ccc(CC(=O)Nc2nccs2)cc1S(=O)(=O)N1CCOCC1 | > 59.6
70 | O=C(O)/C=C/C(=O)Nc1c(F)cccc1F | 27.1 (≈ 119 µM)
71 | O=C(NC1CCCC1)c1ccc(Cl)s1 | 30.7 (≈ 134 µM)
72 | Fc1ccc(CNC(=S)NC2CCCCCC2)cc1 | 28.3 (≈ 101 µM)
73 | Cn1c(N)c(C(=O)COC(=O)Cc2ccccc2)c(=O)n(C)c1=O | > 49.7
74 | CNC(=O)c1cc(C(=O)c2ccc(Cl)cc2)c[nH]1 | 10.5 (≈ 40 µM)
75 | O=C(Cn1ccnc1)c1ccc(Cl)cc1 | 31.5 (≈ 143 µM)

Row | Structure (SMILES) | solubility kinetic [µg/mL]
76 | CC(NC1c2ccccc2-c2ccccc21)c1ccccc1 (stereo not drawn) | < 0.6
77 | COc1ccccc1NC(=O)NCCN1CCCCC1 | > 41.6
78 | COC(=O)c1cc(N=C(N)N=C(N)N)cc(C(=O)OC)c1 | > 44
79 | COc1cc(/C=C/c2[nH]c(=O)[nH]c(=O)c2[N+](=O)[O-])cc(OC)c1O | > 50.3
80 | O=C(Nc1cccc2ncccc12)c1cc(Br)ccc1Cl | 5 (≈ 13.8 µM)
81 | O=C(O)c1cccc2c1C(=O)N(c1ccccc1)C2 | > 38
82 | CC(=O)Nc1ccc(OCC(=O)N2CCc3ccccc3C2)cc1 | > 48.7
83 | COc1ccc(CCN(C)Cc2cccc3ccccc23)cc1OC | 37.1 (≈ 111 µM)
84 | CCn1c(NC(C)=O)c(-c2ccccc2Cl)c(=O)c2ccccc21 | 49.5 (≈ 145 µM)
85 | Cc1ccc(NC(=O)NCCN2CCCCC2)cc1 | > 39.2
86 | COc1ccc(S(=O)(=O)NCc2ccccn2)cc1OC | 43 (≈ 139 µM)
87 | O=C1c2ccccc2S(=O)(=O)N1Cc1c(F)cccc1Cl | < 0.7
88 | CCN(C(=O)COC(=O)CN1C(=O)c2ccccc2C1=O)c1ccccc1 | > 55
89 | COc1ccccc1CNC(=O)c1ccc2c(c1)OCO2 | > 42.8
90 | CC(NS(=O)(=O)c1ccc2ccccc2c1)c1ccccn1.Cl (stereo not drawn) | > 52.3
91 | Cc1nc(N)nc(N)c1CCCc1ccc(Cl)c(Cl)c1 | > 46.7
92 | Cc1ccnc(SCc2ccc([N+](=O)[O-])cc2)n1 | 29.7 (≈ 114 µM)
93 | CCCCN(Cc1cc2cccc(C)c2[nH]c1=O)S(C)(=O)=O | 41 (≈ 127 µM)
94 | CCOC(=O)c1ccc(S(=O)(=O)N2CCN(C(C)=O)CC2)cc1 | > 51.1
95 | CCCC(=O)OCC(=O)NCc1ccc(Cl)cc1 | 35.8 (≈ 133 µM)
96 | COc1ccc(CNC(=O)N2CCc3ccccc3C2)cc1 | > 44.5
97 | CCOC(=O)C1CCN(C(=O)c2cc3ccccc3oc2=O)CC1 | 48.4 (≈ 147 µM)
98 | Cc1cccc2nc(CSc3ncccc3C(=O)O)cn12 | 39.3 (≈ 131 µM)
99 | COC(=O)c1c(NC(C)=O)sc(C(=O)Nc2ccccc2)c1C | 0.9 (≈ 2.71 µM)
100 | Cc1ccccc1CN1C(=O)c2ccccc2S1(=O)=O | 2.5 (≈ 8.7 µM)

Row | Structure (SMILES) | solubility kinetic [µg/mL]
101 | Cc1[nH]c2ccc(Cl)cc2c(=O)c1CN1CCCC1 | 38.7 (≈ 140 µM)
102 | CCOn1c(=O)c(-c2cc(OC)ccc2OC)[n+]([O-])c2ccccc21 | > 51.4
103 | CN(CC(=O)N1CCCC1)S(=O)(=O)c1cccc(Cl)c1 | > 47.5
104 | CCN(Cc1ccccc1)C(=O)c1ccc(Cl)cc1[N+](=O)[O-] | 44.5 (≈ 140 µM)
105 | O=C(NCCc1ccc(Cl)cc1)c1ccc(Br)s1 | 1.2 (≈ 3.48 µM)
106 | O=[N+]([O-])c1ccc(OCCO)nc1 | 26.7 (≈ 145 µM)
107 | Cc1cccc2c3nc4ccccc4nc3n(C)c12 | < 0.2
108 | COc1ccccc1NC(=O)/C=C1\NC(=O)CS1 | > 39.6
109 | O=CN1Cc2ccccc2-c2ccccc2C1 | > 33.5
110 | O=C(Nc1ccccc1Oc1ccccc1)C1=COCCO1 | 34.3 (≈ 115 µM)
111 | COc1ccc(OCC(N)=O)cc1 | > 27.2
112 | COc1cccc(OC)c1C(=O)NC(=S)NCc1cccnc1 | 11.3 (≈ 34.1 µM)
113 | O=S(=O)(Nc1ccccn1)c1cccs1 | > 36
114 | CSc1ccc(NC(N)=S)cc1 | > 29.7
115 | O=C(Cc1c(F)cccc1Cl)NCc1cccnc1 | > 41.8
116 | CC1=C(C(=O)OCc2ccccc2)C(c2cccc(F)c2)NC(=O)N1 (stereo not drawn) | 2.5 (≈ 7.35 µM)
117 | CCOc1ccc2[nH]c3c(NCCO)ncnc3c2c1 | > 40.8
118 | COc1c(C)cc(C(=O)C2CCCN(C3CCOCC3)C2)cc1C (stereo not drawn) | > 49.7
119 | O=S1(=O)CCN(Cc2csc(-c3cccs3)n2)CC1 | > 47.2
120 | O=C(OCC(=O)N1CCCC1)c1ccc(Cl)c([N+](=O)[O-])c1 | 31.8 (≈ 102 µM)
121 | O=C(NC1CCCC1)c1cc(-c2ccccc2)nc2ccccc12 | 1.4 (≈ 4.42 µM)
122 | COCCCN(CC(=O)O)S(=O)(=O)c1cccc(Cl)c1 | > 48.3
123 | Cc1cc(Sc2ccc([N+](=O)[O-])cn2)ccc1Br | < 0.3
